Like-named read-outs stand apart in the source and are kept apart here.
Assays:
[1] = tested on: hNSC; test: MMP assay in human neural stem cells (hNSC); format: cell-based
[2] = tested on: mitochondrial respiratory chain complex V; format: biochemical, rat
[3] = tested on: Caenorhabditis elegans strain PE255; settings: in vivo
[4] = tested on: isolated rat liver mitochondria; test: Oxygen consumption, Clark-type oxygen electrode; format: biochemical
[5] = tested on: mitochondrial respiratory chain complex III; format: biochemical, rat
[6] = tested on: rat primary hepatocytes
[7] = tested on: HepG2 cells
[8] = tested on: rat primary hepatocytes; test: MMP assay in rat primary hepatocytes
[9] = tested on: Nrf2/ARE (ARE-bla HepG2 cells); test: ARE β-lactamase reporter gene assay; format: cell-based, human
[10] = tested on: p53 (p53-bla HCT-116 cells); test: p53 β-lactamase reporter gene assay; format: cell-based, human
[11] = tested on: Caenorhabditis elegans (Bristol N2); settings: in vivo
[12] = tested on: mitochondrial respiratory chain complex IV; format: biochemical, rat
[13] = tested on: mitochondrial respiratory chain complex I; format: biochemical, rat; settings: at 20μM
[14] = tested on: Caenorhabditis elegans strain PE255; test: In vivo C. elegans ATP status assay
[15] = tested on: HepG2 cells; test: ROS-Glo hydrogen peroxide (ROS) assay; format: cell-based, human
[16] = tested on: HepG2 cells; test: Intracellular ATP content (cell viability) assay; format: cell-based, human
[17] = tested on: HeLa cells expressing YFP-Parkin; test: Parkin translocation assay; format: cell-based, human
[18] = tested on: Caenorhabditis elegans (Bristol N2); test: C. elegans larval development and growth assay
[19] = tested on: HepG2 cells; settings: cited from earlier work
[20] = molecular target: T1, mitochondrial respiratory chain complex II (Rattus norvegicus, UniProt P21913+Q641Z9+Q6PCT8+Q920L2); test: Respiratory chain complex II activity; format: biochemical; settings: tested up to 100μM
T1 construct: Submitochondrial particles were prepared by subjecting the intact rat mitochondria, isolated as described above, to three successive freeze–thaw cycles; from tissue; host or cells: rat liver mitochondria (submitochondrial particles)

[21] = tested on: HepG2 cells; test: Oxygen consumption, Seahorse XF24 analyzer; format: cell-based, human

T1 sequence (Q920L2 35-656): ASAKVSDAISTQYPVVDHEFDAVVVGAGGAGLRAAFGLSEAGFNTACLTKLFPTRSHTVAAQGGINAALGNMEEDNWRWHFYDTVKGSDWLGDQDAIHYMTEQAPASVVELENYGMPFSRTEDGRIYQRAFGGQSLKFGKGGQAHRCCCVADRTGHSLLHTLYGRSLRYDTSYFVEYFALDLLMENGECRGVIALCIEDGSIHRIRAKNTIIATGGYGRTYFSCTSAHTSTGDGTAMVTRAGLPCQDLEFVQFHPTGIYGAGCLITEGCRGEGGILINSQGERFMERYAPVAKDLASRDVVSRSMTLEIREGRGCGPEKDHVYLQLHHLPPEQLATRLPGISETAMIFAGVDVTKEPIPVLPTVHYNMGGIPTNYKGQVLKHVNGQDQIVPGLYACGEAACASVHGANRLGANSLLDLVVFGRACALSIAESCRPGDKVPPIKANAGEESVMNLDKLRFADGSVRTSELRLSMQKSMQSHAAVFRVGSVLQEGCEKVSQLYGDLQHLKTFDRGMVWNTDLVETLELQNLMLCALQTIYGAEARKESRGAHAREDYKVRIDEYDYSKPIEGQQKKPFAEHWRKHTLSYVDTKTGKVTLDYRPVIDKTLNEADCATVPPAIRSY
T1 sequence (P21913 31-282): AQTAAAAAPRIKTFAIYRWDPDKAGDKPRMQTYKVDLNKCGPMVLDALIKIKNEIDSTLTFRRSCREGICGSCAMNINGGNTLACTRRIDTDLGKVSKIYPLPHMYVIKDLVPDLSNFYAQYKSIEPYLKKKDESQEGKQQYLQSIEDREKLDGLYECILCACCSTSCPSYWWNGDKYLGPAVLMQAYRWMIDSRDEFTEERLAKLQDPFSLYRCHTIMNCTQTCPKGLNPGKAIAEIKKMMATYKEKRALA
T1 sequence (Q641Z9 1-169): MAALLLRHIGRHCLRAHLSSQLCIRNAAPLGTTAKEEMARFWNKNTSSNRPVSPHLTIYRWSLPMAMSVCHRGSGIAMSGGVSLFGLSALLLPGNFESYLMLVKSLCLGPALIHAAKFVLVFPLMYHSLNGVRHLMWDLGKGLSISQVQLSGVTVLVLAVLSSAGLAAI
T1 sequence (Q6PCT8 57-159): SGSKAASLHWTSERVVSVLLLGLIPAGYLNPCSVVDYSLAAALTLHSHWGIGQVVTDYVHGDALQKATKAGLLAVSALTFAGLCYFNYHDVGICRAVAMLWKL

Question: What does the source list for CO/C=C(/C(=O)OC)c1ccccc1COc1cccc(C(F)(F)F)n1 [Picoxystrobin]?
Answer: hNSC (efficacy) (MMP) [1]: 38.2±0.00 ( −92.8±16.3 ) %; IC50 ([1]; read-out: hNSC IC50 (MMP)): 38.2 µM; Complex V % inhibition (activity call) [2]: Inactive; LEC (lowest effect concentration), ATP assay [3]: < 10 µM; Potential Mechanism [4]: Inhibitor; effect on mitochondrial respiration (in words) [4]: effects similar to antimycin A; I-ADP, % of control (O2 consumption rate) ([4]; 0.0064 µM): 94 (43.2) % of control; I-sub, % of control (O2 consumption rate) ([4]; 0.0064 µM): 104 (11.7) % of control; II-ADP, % of control (O2 consumption rate) ([4]; 0.0064 µM): 81 (61.2) % of control; II-sub, % of control (O2 consumption rate) ([4]; 0.0064 µM): 101 (20.8) % of control; I-ADP, % of control (O2 consumption rate) ([4]; 0.032 µM): 84 (38.8) % of control; I-sub, % of control (O2 consumption rate) ([4]; 0.032 µM): 103 (11.5) % of control; II-ADP, % of control (O2 consumption rate) ([4]; 0.032 µM): 36 (27.2) % of control; II-sub, % of control (O2 consumption rate) ([4]; 0.032 µM): 74 (15.3) % of control; I-ADP, % of control (O2 consumption rate) ([4]; 0.16 µM): 50 (22.8) % of control; I-sub, % of control (O2 consumption rate) ([4]; 0.16 µM): 90 (10.1) % of control; II-ADP, % of control (O2 consumption rate) ([4]; 0.16 µM): 11 (7.9) % of control; II-sub, % of control (O2 consumption rate) ([4]; 0.16 µM): 41 (8.5) % of control; I-ADP, % of control (O2 consumption rate) ([4]; 0.8 µM): 16 (7.2) % of control; I-sub, % of control (O2 consumption rate) ([4]; 0.8 µM): 59 (6.6) % of control; II-ADP, % of control (O2 consumption rate) ([4]; 0.8 µM): 9 (7.1) % of control; II-sub, % of control (O2 consumption rate) ([4]; 0.8 µM): 33 (6.9) % of control; I-ADP, % of control (O2 consumption rate) ([4]; 4 µM): 9 (4.0) % of control; I-sub, % of control (O2 consumption rate) ([4]; 4 µM): 39 (4.4) % of control; II-ADP, % of control (O2 consumption rate) ([4]; 4 µM): 9 (6.6) % of control; II-sub, % of control (O2 consumption rate) ([4]; 4 µM): 33 (6.9) % of control; I-ADP, % of control (O2 consumption rate) ([4]; 20 µM): 9 (4.1) % of control; I-sub, % of control (O2 consumption rate) ([4]; 20 µM): 34 (3.8) % of control; II-ADP, % of control (O2 consumption rate) ([4]; 20 µM): 10 (7.4) % of control; II-sub, % of control (O2 consumption rate) ([4]; 20 µM): 36 (7.4) % of control; I-ADP, % of control (O2 consumption rate) ([4]; 100 µM): 8 (3.7) % of control; I-sub, % of control (O2 consumption rate) ([4]; 100 µM): 25 (3.9) % of control; II-ADP, % of control (O2 consumption rate) ([4]; 100 µM): 7 (4.7) % of control; II-sub, % of control (O2 consumption rate) ([4]; 100 µM): 16 (4.9) % of control; inhibitory effect on Complex III at (concentration) [5]: 4 µM; Complex III % inhibition ([5]; at 4μM): 53.3±3.26 at 4μM %; MMP assays efficacy (%) Rat Hepatocytes [6]: -101+6%; Rat hepatocytes (efficacy) (MMP) [6]: 16.1±7.03 ( −77.3±9.18 ) %; HepG2 (efficacy) Galactose (MMP) [7]: 24.4±4.56 ( −119±6.45 ) %; HepG2 (efficacy) Glucose (MMP) [7]: 13.6±14.5 ( −62.9±25.1 ) %; MMP assays efficacy (%) HepG2 [7]: -122%; IC50 ([7]; read-out: HepG2 IC50 Galactose (MMP)): 24.4 µM; IC50 ([7]; read-out: HepG2 IC50 Glucose (MMP)): 13.6 µM; IC50 ([7]; read-out: MMP assays IC50 (µM) HepG2): 1 µM; IC50 ([8]; read-out: MMP assays IC50 (µM) Rat Hepatocytes): 14.6 ± 4.7 µM; IC50 ([8]; read-out: Rat hepatocytes IC50 (MMP)): 16.1 µM; EC50 ([9]; 16 h incubation, mean±SD of three experiments, read-out: ARE (HepG2) EC50): 0.75 ± 0.49 µM; ARE (HepG2) (efficacy) ([9]; % of positive control): 57.6±7.85%; EC50 ([10]; 16 h incubation, mean±SD of three experiments): 6.68 ± 2.21 µM; p53 (HCT-116) (efficacy) ([10]; % of positive control): 40.2±19.6%; LEC (lowest effect concentration), larval growth assay [11]: < 10 µM; Complex IV % inhibition (activity call) [12]: Inactive; Complex I % inhibition [13]: 13.2±3.23 at 20μM %; LUM: mean difference in luminescence (ATP content) relative to plate controls ([14]; 0.5 µM): -0.02313; LUM: mean difference in luminescence (ATP content) relative to plate controls ([14]; 1 µM): -0.1059; LUM: mean difference in luminescence (ATP content) relative to plate controls ([14]; 5 µM): 0.5517; LUM: mean difference in luminescence (ATP content) relative to plate controls ([14]; 10 µM): 0.8678; LUM: mean difference in luminescence (ATP content) relative to plate controls ([14]; 25 µM): 0.0568; LUM: mean difference in luminescence (ATP content) relative to plate controls ([14]; 50 µM): 0.3665; LUM: mean difference in luminescence (ATP content) relative to plate controls ([14]; 75 µM): 0.468; LUM: mean difference in luminescence (ATP content) relative to plate controls ([14]; 100 µM): 0.877; effect on ATP content (in words) ([14]; 0.5–100μM): inhibited; LEC LUM: lowest effect concentration for luminescence, a measure of nematode ATP content ([14]; in vivo): 5 µM; ROS (HepG2) (efficacy) [15]: 15.4±5.47 ( 36.2±2.46 ) %; EC50 ([15]; read-out: ROS (HepG2) EC50): 15.4 µM; ATP (HepG2, galactose) (efficacy) [16]: 3.08±0.64 ( −76.4±37.7 ) %; ATP (HepG2, glucose) (efficacy) [16]: 3.61±1.57 ( −76.4±30.3 ) %; IC50 ([16]; read-out: ATP (HepG2, galactose) IC50): 3.08 µM; IC50 ([16]; read-out: ATP (HepG2, glucose) IC50): 3.61 µM; Parkin recruitment [17]: Inactive; Parkin translocation into mitochondria (in words) ([17]; 3 h): did not induce Parkin translocation; EXT: mean difference in nematode size relative to plate controls ([18]; 0.5 µM): 0.05428; EXT: mean difference in nematode size relative to plate controls ([18]; 1 µM): 0.004345; EXT: mean difference in nematode size relative to plate controls ([18]; 5 µM): 1.265; EXT: mean difference in nematode size relative to plate controls ([18]; 10 µM): 1.24; EXT: mean difference in nematode size relative to plate controls ([18]; 25 µM): 0.112; EXT: mean difference in nematode size relative to plate controls ([18]; 50 µM): 0.8304; EXT: mean difference in nematode size relative to plate controls ([18]; 75 µM): 0.6508; EXT: mean difference in nematode size relative to plate controls ([18]; 100 µM): 1.291; effect on larval growth (in words) ([18]; 0.5–100μM): inhibited; LEC EXT: lowest effect concentration for extinction, a measure of nematode size ([18]; in vivo): 5 µM; MMP assays efficacy (%) qHTS-HepG2 [19]: -116±5%; IC50 ([19]; read-out: MMP assays IC50 (µM), qHTS-HepG2): 9.31 ± 2.67 µM; Complex II % inhibition (activity call) [20]: Inactive; Activity in oxygen consumption [21]: Inhibitor

From PMC6112376, “Comprehensive Analyses and Prioritization of Tox21 10K Chemicals Affecting Mitochondrial Function by in-Depth Mechanistic Studies” (Environmental Health Perspectives, 2018)
